Measurements reported in US10344017B2, “Pyrrolcarboxamide derivatives for the inhibition of ERK5” (CANCER RESEARCH TECHNOLOGY LIMITED, priority 2014, dated 2019).

Target: T1, ERK5 (Homo sapiens, UniProt Q13164)
T1 construct: made in house
Assay: ERK5 IMAP assay (fluorescence polarisation)
Format: biochemical
Details: average (e.g. geometric mean) where more than one data point; read-out: ERK5 IC50

T1 sequence (Q13164 whole entry): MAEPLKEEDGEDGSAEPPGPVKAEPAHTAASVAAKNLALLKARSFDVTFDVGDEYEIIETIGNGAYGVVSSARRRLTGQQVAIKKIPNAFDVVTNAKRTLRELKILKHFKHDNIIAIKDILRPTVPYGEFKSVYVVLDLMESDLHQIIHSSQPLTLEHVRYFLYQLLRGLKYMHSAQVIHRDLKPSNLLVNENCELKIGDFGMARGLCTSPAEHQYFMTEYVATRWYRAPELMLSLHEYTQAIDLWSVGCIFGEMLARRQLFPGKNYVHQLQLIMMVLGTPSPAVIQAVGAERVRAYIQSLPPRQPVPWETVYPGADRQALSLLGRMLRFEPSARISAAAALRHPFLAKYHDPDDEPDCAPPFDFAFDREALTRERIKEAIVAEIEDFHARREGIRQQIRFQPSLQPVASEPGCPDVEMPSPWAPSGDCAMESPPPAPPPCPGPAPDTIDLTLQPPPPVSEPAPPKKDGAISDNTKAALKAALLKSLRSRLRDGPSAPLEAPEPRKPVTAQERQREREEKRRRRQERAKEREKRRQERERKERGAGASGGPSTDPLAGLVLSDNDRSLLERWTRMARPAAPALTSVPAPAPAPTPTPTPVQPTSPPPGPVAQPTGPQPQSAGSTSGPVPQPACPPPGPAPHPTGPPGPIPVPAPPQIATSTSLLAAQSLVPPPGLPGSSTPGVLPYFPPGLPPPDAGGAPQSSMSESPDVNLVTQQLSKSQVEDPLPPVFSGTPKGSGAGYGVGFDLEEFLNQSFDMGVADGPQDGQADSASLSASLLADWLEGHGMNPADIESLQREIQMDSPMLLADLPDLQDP

IC50 [nM] | SMILES
401 | Cc1cc(NC(=O)c2cc(C(=O)c3c(F)cccc3Cl)c[nH]2)ccn1 [Example 136, 4-(2-Chloro-6-fluorobenzoyl)-N-(2-methylpyridin-4-yl)-1H-pyrrole-2-carboxamide]
1080 | Cc1cc(NC(=O)c2cc(C(=O)c3c(F)cccc3Br)c[nH]2)ccn1 [Example 137, 4-(2-Bromo-6-fluorobenzoyl)-N-(2-methylpyridin-4-yl)-1H-pyrrole-2-carboxamide]
439 | O=C(Nc1ccnnc1)c1cc(C(=O)c2c(F)cccc2Cl)c[nH]1 [Example 138, 4-(2-Chloro-6-fluorobenzoyl)-N-(pyridazin-4-yl)-1H-pyrrole-2-carboxamide]
818 | O=C(Nc1ccnnc1)c1cc(C(=O)c2c(F)cccc2Br)c[nH]1 [Example 139, 4-(2-Bromo-6-fluorobenzoyl)-N-(pyridazin-4-yl)-1H-pyrrole-2-carboxamide]
4350 | O=C(Nc1ccnc(Cl)n1)c1cc(C(=O)c2c(F)cccc2Cl)c[nH]1 [Example 140, 4-(2-Chloro-6-fluorobenzoyl)-N-(2-chloropyrimidin-4-yl)-1H-pyrrole-2-carboxamide]
7760 | O=C(Nc1ccnc(Cl)n1)c1cc(C(=O)c2c(F)cccc2Br)c[nH]1 [Example 141, 4-(2-Bromo-6-fluorobenzoyl)-N-(2-chloropyrimidin-4-yl)-1H-pyrrole-2-carboxamide]
4130 | Cc1cc(NC(=O)c2cc(C(=O)c3c(F)cccc3Cl)c[nH]2)nc(C)n1 [Example 142, 4-(2-Chloro-6-fluorobenzoyl)-N-(2,6-dimethylpyrimidin-4-yl)-1H-pyrrole-2-carboxamide]
4950 | Cc1cc(NC(=O)c2cc(C(=O)c3c(F)cccc3Br)c[nH]2)nc(C)n1 [Example 143, 4-(2-Bromo-6-fluorobenzoyl)-N-(2,6-dimethylpyrimidin-4-yl)-1H-pyrrole-2-carboxamide]
654 | O=C(Nc1cncnc1)c1cc(C(=O)c2c(F)cccc2Br)c[nH]1 [Example 145, 4-(2-Bromo-6-fluorobenzoyl)-N-(pyrimidin-5-yl)-1H-pyrrole-2-carboxamide]
2940 | O=C(Nc1cc[nH]c(=O)n1)c1cc(C(=O)c2c(F)cccc2Cl)c[nH]1 [Example 146, 4-(2-Chloro-6-fluorobenzoyl)-N-(2-oxo-1,2-dihydropyrimidin-4-yl)-1H-pyrrole-2-carboxamide]
34200 | O=C(Nc1cc[nH]c(=O)n1)c1cc(C(=O)c2c(F)cccc2Br)c[nH]1 [Example 147, 4-(2-Bromo-6-fluorobenzoyl)-N-(2-oxo-1,2-dihydropyrimidin-4-yl)-1H-pyrrole-2-carboxamide]
960 | Cc1ncccc1NC(=O)c1cc(C(=O)c2c(F)cccc2Cl)c[nH]1 [Example 148, 4-(2-Chloro-6-fluorobenzoyl)-N-(2-methylpyridin-3-yl)-1H-pyrrole-2-carboxamide]
2390 | Cc1ncccc1NC(=O)c1cc(C(=O)c2c(F)cccc2Br)c[nH]1 [Example 149, 4-(2-Bromo-6-fluorobenzoyl)-N-(2-methylpyridin-3-yl)-1H-pyrrole-2-carboxamide]
1030 | Cc1ccc(NC(=O)c2cc(C(=O)c3c(F)cccc3Cl)c[nH]2)cn1 [Example 150, 4-(2-Chloro-6-fluorobenzoyl)-N-(6-methylpyridin-3-yl)-1H-pyrrole-2-carboxamide]
1490 | O=C(Nc1ccc(F)nc1)c1cc(C(=O)c2c(F)cccc2Cl)c[nH]1 [Example 152, 4-(2-Chloro-6-fluorobenzoyl)-N-(6-fluoropyridin-3-yl)-1H-pyrrole-2-carboxamide]
1700 | O=C(Nc1ccc(F)nc1)c1cc(C(=O)c2c(F)cccc2Br)c[nH]1 [Example 153, 4-(2-Bromo-6-fluorobenzoyl)-N-(6-fluoropyridin-3-yl)-1H-pyrrole-2-carboxamide]
1190 | Cc1ncc(NC(=O)c2cc(C(=O)c3c(F)cccc3Br)c[nH]2)cn1 [Example 155, 4-(2-Bromo-6-fluorobenzoyl)-N-(2-methylpyrimidin-5-yl)-1H-pyrrole-2-carboxamide]
1540 | O=C(Nc1ccc2cn[nH]c2c1)c1cc(C(=O)c2c(F)cccc2Cl)c[nH]1 [Example 156, 4-(2-Chloro-6-fluorobenzoyl)-N-(1H-indazol-6-yl)-1H-pyrrole-2-carboxamide]
7160 | O=C(Nc1ccc2cn[nH]c2c1)c1cc(C(=O)c2c(F)cccc2Br)c[nH]1 [Example 157, 4-(2-Bromo-6-fluorobenzoyl)-N-(1H-indazol-6-yl)-1H-pyrrole-2-carboxamide]
5470 | O=C(Nc1ccncc1)c1cc(C(=O)c2cccc(Cl)c2Cl)c[nH]1 [Example 158, 4-(2,3-Dichlorobenzoyl)-N-(pyridin-4-yl)-1H-pyrrole-2-carboxamide]
1330 | CCc1ccc(F)c(C(=O)c2c[nH]c(C(=O)Nc3cccnc3)c2)c1F [Example 162]
3460 | CCc1ccc(F)c(C(=O)c2c[nH]c(C(=O)Nc3cncnc3)c2)c1F [Example 163, 4-(3-Ethyl-2,6-difluorobenzoyl)-N-(pyrimidin-5-yl)-1H-pyrrole-2-carboxamide]

IC50 [nM] | SMILES
610 | CCc1ccc(F)c(C(=O)c2c[nH]c(C(=O)NC3CCN(C)CC3)c2)c1F [Example 164, 4-(3-Ethyl-2,6-difluorobenzoyl)-N-(1-methylpiperidin-4-yl)-1H-pyrrole-2-carboxamide]
1580 | C=Cc1ccc(F)c(C(=O)c2c[nH]c(C(=O)Nc3cccnc3)c2)c1F [Example 165, 4-(2,6-Difluoro-3-vinylbenzoyl)-N-(pyridin-3-yl)-1H-pyrrole-2-carboxamide]
1370 | C=Cc1ccc(F)c(C(=O)c2c[nH]c(C(=O)Nc3cncnc3)c2)c1F [Example 166, 4-(2,6-Difluoro-3-vinylbenzoyl)-N-(pyrimidin-5-yl)-1H-pyrrole-2-carboxamide]
2450 | C=C(C)c1ccc(F)c(C(=O)c2c[nH]c(C(=O)Nc3cccnc3)c2)c1F [Example 168, 4-(2,6-Difluoro-3-(prop-1-en-2-yl)benzoyl)-N-(pyridin-3-yl)-1H-pyrrole-2-carboxamide]
265 | O=C(Nc1cccnc1)c1cc(C(=O)c2c(F)ccc(Cl)c2Cl)c[nH]1 [Example 169, 4-(2,3-Dichloro-6-fluorobenzoyl)-N-(pyridin-3-yl)-1H-pyrrole-2-carboxamide]
346 | O=C(Nc1cncnc1)c1cc(C(=O)c2c(F)ccc(Cl)c2Cl)c[nH]1 [Example 170, 4-(2,3-Dichloro-6-fluorobenzoyl)-N-(pyrimidin-5-yl)-1H-pyrrole-2-carboxamide]
283 | CN1CCC(NC(=O)c2cc(C(=O)c3c(F)ccc(Cl)c3Cl)c[nH]2)CC1 [Example 171, 4-(2,3-Dichloro-6-fluorobenzoyl)-N-(1-methylpiperidin-4-yl)-1H-pyrrole-2-carboxamide]
115 | CN1CCC(NC(=O)c2cc(C(=O)c3c(Cl)ccc(Cl)c3F)c[nH]2)CC1 [Example 174, 4-(3,6-dichloro-2-fluorobenzoyl)-N-(1-methylpiperidin-4-yl)-1H-pyrrole-2-carboxamide]
649 | Cc1ccc(F)c(C(=O)c2c[nH]c(C(=O)Nc3cccnc3)c2)c1Cl [Example 175, 4-(2-Chloro-6-fluoro-3-methylbenzoyl)-N-(pyridin-3-yl)-1H-pyrrole-2-carboxamide]
1180 | Cc1ccc(F)c(C(=O)c2c[nH]c(C(=O)Nc3cncnc3)c2)c1Cl [Example 176, 4-(2-Chloro-6-fluoro-3-methylbenzoyl)-N-(pyrimidin-5-yl)-1H-pyrrole-2-carboxamide]
472 | Cc1ccc(F)c(C(=O)c2c[nH]c(C(=O)NC3CCN(C)CC3)c2)c1Cl [Example 177, 4-(2-Chloro-6-fluoro-3-methylbenzoyl)-N-(1-methylpiperidin-4-yl)-1H-pyrrole-2-carboxamide]
515 | Cc1ccc(Cl)c(C(=O)c2c[nH]c(C(=O)Nc3cccnc3)c2)c1F [Example 178, 4-(6-Chloro-2-fluoro-3-methylbenzoyl)-N-(pyridin-3-yl)-1H-pyrrole-2-carboxamide]
263 | Cc1ccc(Cl)c(C(=O)c2c[nH]c(C(=O)Nc3cncnc3)c2)c1F [Example 179, 4-(6-Chloro-2-fluoro-3-methylbenzoyl)-N-(pyrimidin-5-yl)-1H-pyrrole-2-carboxamide]
490 | Cc1ccc(Cl)c(C(=O)c2c[nH]c(C(=O)NC3CCN(C)CC3)c2)c1F [Example 180, 4-(6-Chloro-2-fluoro-3-methylbenzoyl)-N-(1-methylpiperidin-4-yl)-1H-pyrrole-2-carboxamide]
66.5 | O=C(Nc1cccnc1)c1cc(C(=O)c2c(Cl)ccc(Br)c2F)c[nH]1 [Example 181, 4-(3-Bromo-6-chloro-2-fluorobenzoyl)-N-(pyridin-3-yl)-1H-pyrrole-2-carboxamide]
606 | O=C(Nc1cncnc1)c1cc(C(=O)c2c(Cl)ccc(Br)c2F)c[nH]1 [Example 182, 4-(3-Bromo-6-chloro-2-fluorobenzoyl)-N-(pyrimidin-5-yl)-1H-pyrrole-2-carboxamide]
1900 | Cc1cccc(F)c1C(=O)c1c[nH]c(C(=O)Nc2ccncc2)c1 [Example 185, 4-(2-Fluoro-6-methylbenzoyl)-N-(pyridin-4-yl)-1H-pyrrole-2-carboxamide]
2570 | Cc1cccc(F)c1C(=O)c1c[nH]c(C(=O)Nc2cccnc2)c1 [Example 186, 4-(2-Fluoro-6-methylbenzoyl)-N-(pyridin-3-yl)-1H-pyrrole-2-carboxamide]
1080 | CC(C)(C)OC(=O)N1CCC(NC(=O)c2cc(C(=O)c3c(F)cccc3Cl)c[nH]2)CC1 [Example 193, tert-Butyl 4-(4-(2-chloro-6-fluorobenzoyl)-1H-pyrrole-2-carboxamido)piperidine-1-carboxylate]
845 | O=C(NC1CCOCC1)c1cc(C(=O)c2c(F)cccc2Cl)c[nH]1 [Example 194, 4-(2-Chloro-6-fluorobenzoyl)-N-(tetrahydro-2H-pyran-4-yl)-1H-pyrrole-2-carboxamide]
289 | CN1CCC(NC(=O)c2cc(C(=O)c3c(F)cccc3Br)c[nH]2)CC1 [Example 195, 4-(2-Bromo-6-fluorobenzoyl)-N-(1-methylpiperidin-4-yl)-1H-pyrrole-2-carboxamide]
